This is an account of results in PubChem BioAssay AID1259407 (Chemical Carcinogenesis Research Information System (CCRIS), 2018).

Active and inactive are the calls of the source. How the calls were made is not given here.

The series concerns CCRIS mutagenicity, Ames/micronucleus/aberration tests. Nature of the series: CCRIS mutagenicity studies.
Setting [1] is: Test System: AMES SALMONELLA TYPHIMURIUM, Strain/Indicator: TA98, Metabolic Activation: NONE, Method: PREINCUBATION
[2] abbreviates: Test System: AMES SALMONELLA TYPHIMURIUM, Strain/Indicator: TA100, Metabolic Activation: NONE, Method: PREINCUBATION
Where [3] appears, read: Test System: AMES SALMONELLA TYPHIMURIUM, Strain/Indicator: TA98, Metabolic Activation: NONE, Method: STANDARD PLATE.
The mark [4] stands for this setting: Test System: AMES SALMONELLA TYPHIMURIUM, Strain/Indicator: TA100, Metabolic Activation: NONE, Method: STANDARD PLATE.

With `CC(CCl)OP(=O)(OC(C)CCl)OC(C)CCl` (stereo not given), the mutagenic call reads like this: (Test System: AMES SALMONELLA TYPHIMURIUM, Strain/Indicator: TA97, Metabolic Activation: HAMSTER, LIVER, S-9, AROCLOR 1254 (10%), Method: PREINCUBATION) “inactive; negative”; (Test System: AMES SALMONELLA TYPHIMURIUM, Strain/Indicator: TA97, Metabolic Activation: HAMSTER, LIVER, S-9, AROCLOR 1254 (30%), Method: PREINCUBATION) “inactive; negative”; (Test System: AMES SALMONELLA TYPHIMURIUM, Strain/Indicator: TA97, Metabolic Activation: NONE, Method: PREINCUBATION) “inactive; negative”; (Test System: AMES SALMONELLA TYPHIMURIUM, Strain/Indicator: TA97, Metabolic Activation: RAT, LIVER, S-9, AROCLOR 1254 (10%), Method: PREINCUBATION) “inactive; negative”; (Test System: AMES SALMONELLA TYPHIMURIUM, Strain/Indicator: TA97, Metabolic Activation: RAT, LIVER, S-9, AROCLOR 1254 (30%), Method: PREINCUBATION) “inactive; negative”; (Test System: AMES SALMONELLA TYPHIMURIUM, Strain/Indicator: TA98, Metabolic Activation: HAMSTER, LIVER, S-9, AROCLOR 1254 (10%), Method: PREINCUBATION) “inactive; negative”. The mutagenic call reads like this: (Test System: AMES SALMONELLA TYPHIMURIUM, Strain/Indicator: TA98, Metabolic Activation: HAMSTER, LIVER, S-9, AROCLOR 1254 (30%), Method: PREINCUBATION) “inactive; negative”; under setting [1], “inactive; negative”; (Test System: AMES SALMONELLA TYPHIMURIUM, Strain/Indicator: TA98, Metabolic Activation: RAT, LIVER, S-9, AROCLOR 1254 (10%), Method: PREINCUBATION) “inactive; negative”; (Test System: AMES SALMONELLA TYPHIMURIUM, Strain/Indicator: TA98, Metabolic Activation: RAT, LIVER, S-9, AROCLOR 1254 (30%), Method: PREINCUBATION) “inactive; negative”; (Test System: AMES SALMONELLA TYPHIMURIUM, Strain/Indicator: TA100, Metabolic Activation: HAMSTER, LIVER, S-9, AROCLOR 1254 (10%), Method: PREINCUBATION) “inactive; negative”; (Test System: AMES SALMONELLA TYPHIMURIUM, Strain/Indicator: TA100, Metabolic Activation: HAMSTER, LIVER, S-9, AROCLOR 1254 (30%), Method: PREINCUBATION) “inactive; negative”. Moreover, the mutagenic call under setting [2] was “inactive; negative”; the mutagenic call (Test System: AMES SALMONELLA TYPHIMURIUM, Strain/Indicator: TA100, Metabolic Activation: RAT, LIVER, S-9, AROCLOR 1254 (10%), Method: PREINCUBATION) is “inactive; negative”; the mutagenic call (Test System: AMES SALMONELLA TYPHIMURIUM, Strain/Indicator: TA100, Metabolic Activation: RAT, LIVER, S-9, AROCLOR 1254 (30%), Method: PREINCUBATION) was “inactive; negative”; the mutagenic call (Test System: AMES SALMONELLA TYPHIMURIUM, Strain/Indicator: TA1535, Metabolic Activation: HAMSTER, LIVER, S-9, AROCLOR 1254 (10%), Method: PREINCUBATION) is “inactive; negative”; the mutagenic call (Test System: AMES SALMONELLA TYPHIMURIUM, Strain/Indicator: TA1535, Metabolic Activation: HAMSTER, LIVER, S-9, AROCLOR 1254 (30%), Method: PREINCUBATION) was “inactive; negative”; the mutagenic call (Test System: AMES SALMONELLA TYPHIMURIUM, Strain/Indicator: TA1535, Metabolic Activation: NONE, Method: PREINCUBATION) is “inactive; negative”. The mutagenic call runs as follows: (Test System: AMES SALMONELLA TYPHIMURIUM, Strain/Indicator: TA1535, Metabolic Activation: RAT, LIVER, S-9, AROCLOR 1254 (5 OR 30%), Method: PREINCUBATION) “inactive; negative”; (Test System: AMES SALMONELLA TYPHIMURIUM, Strain/Indicator: TA1535, Metabolic Activation: RAT, LIVER, S-9, AROCLOR 1254 (10%), Method: PREINCUBATION) “inactive; negative”; (Test System: AMES SALMONELLA TYPHIMURIUM, Strain/Indicator: TA1537, Metabolic Activation: HAMSTER, LIVER, S-9, AROCLOR 1254 (30%), Method: PREINCUBATION) “inactive; negative”; (Test System: AMES SALMONELLA TYPHIMURIUM, Strain/Indicator: TA1537, Metabolic Activation: NONE, Method: PREINCUBATION) “inactive; negative”; (Test System: AMES SALMONELLA TYPHIMURIUM, Strain/Indicator: TA1537, Metabolic Activation: RAT, LIVER, S-9, AROCLOR 1254 (30%), Method: PREINCUBATION) “inactive; negative”.

Take `CC(C)(C)c1ccc(/C=C/c2ccc(N)cc2)cc1`: the mutagenic call was “inactive; negative” under setting [3]; “inactive; negative” (Test System: AMES SALMONELLA TYPHIMURIUM, Strain/Indicator: TA98, Metabolic Activation: RAT, LIVER, S-9, AROCLOR, Method: STANDARD PLATE); “inactive; negative” under setting [4]; “inactive; negative” (Test System: AMES SALMONELLA TYPHIMURIUM, Strain/Indicator: TA100, Metabolic Activation: RAT, LIVER, S-9, AROCLOR, Method: STANDARD PLATE).

`[Cl][Cu][Cl]`: the mutagenic call was “active; positive” (Test System: E. COLI, Strain/Indicator: WP2 UVRA, Metabolic Activation: NONE, Method: SPOT TEST) and “active; positive” (Test System: E. COLI, Strain/Indicator: WP2 UVRA, Metabolic Activation: NONE, Method: STANDARD PLATE).

For `O=C(/C=C/c1ccc([N+](=O)[O-])cc1)c1ccc([N+](=O)[O-])cc1`, the mutagenic call by setting is: under setting [3], “active; positive”; (Test System: AMES SALMONELLA TYPHIMURIUM, Strain/Indicator: TA98, Metabolic Activation: RAT, LIVER, S-9, AROCLOR 1254, Method: STANDARD PLATE) “inactive; negative”; under setting [4], “inactive; negative”; (Test System: AMES SALMONELLA TYPHIMURIUM, Strain/Indicator: TA100, Metabolic Activation: RAT, LIVER, S-9, AROCLOR 1254, Method: STANDARD PLATE) “inactive; negative”.

Consider `O=C(O)C(Cl)(Cl)Cl`, for which the mutagenic call was “inactive; negative” (End Point: IN VIVO MICRONUCLEUS, Test System: BONE MARROW POLYCHROMATIC ERYTHROCYTES, Species: MOUSE, Strain/Sex: C57BL/6JFBL10/ALPK/FEMALE, Route: IP INJECTION 2 TIMES AT 24 HR INTERVAL); “inactive; negative; a statistically significant increase was observed at 675 mg/kg after 2” (End Point: IN VIVO MICRONUCLEUS, Test System: BONE MARROW POLYCHROMATIC ERYTHROCYTES, Species: MOUSE, Strain/Sex: C57BL/6JFBL10/ALPK/MALE, Route: IP INJECTION 2 TIMES AT 24 HR INTERVAL); “inactive; negative” (Test System: AMES SALMONELLA TYPHIMURIUM, Strain/Indicator: RSJ100, Metabolic Activation: NONE, Method: PREINCUBATION); “inactive; negative” (Test System: AMES SALMONELLA TYPHIMURIUM, Strain/Indicator: RSJ100, Metabolic Activation: RAT LIVER S-9, Method: PREINCUBATION); “inactive; negative” under setting [1]; “inactive; negative” (Test System: AMES SALMONELLA TYPHIMURIUM, Strain/Indicator: TA98, Metabolic Activation: RAT LIVER S-9, Method: PREINCUBATION). Besides, the mutagenic call (Test System: AMES SALMONELLA TYPHIMURIUM, Strain/Indicator: TA98, Metabolic Activation: RAT, LIVER, S-9, PHENOBARBITAL AND 5,6-BENZOFLAVONE, Method: PREINCUBATION) is “inactive; negative”; the mutagenic call (Test System: AMES SALMONELLA TYPHIMURIUM, Strain/Indicator: TA100, Metabolic Activation: NONE, Method: BAG VAPORIZATION) is “inactive; negative”; the mutagenic call (Test System: AMES SALMONELLA TYPHIMURIUM, Strain/Indicator: TA100, Metabolic Activation: NONE, Method: FLUCTUATION TEST) was “active; positive”; the mutagenic call under setting [2] was “inactive; negative”; the mutagenic call (Test System: AMES SALMONELLA TYPHIMURIUM, Strain/Indicator: TA100, Metabolic Activation: RAT LIVER S-9, Method: PREINCUBATION) was “inactive; negative”; the mutagenic call (Test System: AMES SALMONELLA TYPHIMURIUM, Strain/Indicator: TA100, Metabolic Activation: RAT, LIVER, S-9, AROCLOR 1254, Method: BAG VAPORIZATION) was “inactive; negative”. In addition, the mutagenic call by setting is: (Test System: AMES SALMONELLA TYPHIMURIUM, Strain/Indicator: TA100, Metabolic Activation: RAT, LIVER, S-9, AROCLOR 1254, Method: FLUCTUATION TEST) “active; positive”; (Test System: AMES SALMONELLA TYPHIMURIUM, Strain/Indicator: TA100, Metabolic Activation: RAT, LIVER, S-9, PHENOBARBITAL AND 5,6-BENZOFLAVONE, Method: PREINCUBATION) “inactive; negative”; (Test System: AMES SALMONELLA TYPHIMURIUM, Strain/Indicator: TA102, Metabolic Activation: NONE, Method: STANDARD PLATE) “inactive; negative”; (Test System: AMES SALMONELLA TYPHIMURIUM, Strain/Indicator: TA102, Metabolic Activation: RAT LIVER S-9, AROCLOR 1254, Method: STANDARD PLATE) “inactive; negative”; (Test System: MOUSE LYMPHOMA, Strain/Indicator: L5178Y (TK+/TK- -3.7.2C), Metabolic Activation: S-9) “active; positive”.
